Assay results: patent US20250282830A1, “ANTI-VIRAL PEPTIDE COMPOSITIONS AND METHODS TO IMPROVE BIOLOGICAL ACTIVITY THEREOF” (priority 2021, published 2025)
pIC50: −log10 of the molar value.

Legend:
[1] = Pharmacokinetic characterization; type: in vivo, BALB/c mice; settings: mice
Method: Male BALB/c mice (InVivos) aged 8-9 weeks were used during the pharmacokinetic characterization experiments. In brief, mice were anaesthetized by isoflurane. AH-D peptide solution (25 mg kg^−1) was then administered by the intravenous (i.v.) route (tail vein). Blood samples were taken by cardiac puncture under isoflurane anaesthesia at regular time points after injection (eight time points per compound). The administered dose was maintained at 5 ml kg^−1. Selected organs were collected after euthanasia and were stored at −80° C. until bioanalysis. Blood samples were mixed with deionized water while tissue samples were homogenized in deionized water before extraction. The samples were then treated with phosphoric acid (5 μl), followed by acetonitrile (25 μl) that contained 15 ng ml^−1 imipramine internal standard, 5% ammonium hydroxide (25 μl), deionized water (100 μl) and 5% Tween-20 (20 μl), before vortexing. The processed samples were then added to pre-activated Strata-X Solid Phase Extraction cartridges (30 mg per 1 ml; Phenomenex), and washed with 500 μl of deionized water, followed by elution in 75/25 acetonitrile/methanol with 1% formic acid. […] The blood and tissue samples were then analysed using a validated bio-analytical, ultra-performance liquid chromatography tandem mass spectrometry method. […]

[2] = Blood-to-brain influx assessment (BBB transport); type: in vivo, ICR-CD-1 mice; settings: mice
Method: Female, Institute for Cancer Research, Caesarean Derived-1 (ICR-CD-1) mice (7 to 10 weeks old; Envigo) were used to assess the in vivo blood-brain barrier (BBB) transport properties of AH-D peptide. The BBB permeability of AH-D was evaluated according to multiple time regression (MTR) analysis. In brief, mice were anesthetized by injecting 40% urethane intraperitoneally. Approximately 200 μl of AH-D peptide solution (10 mg kg^−1) was injected into the jugular internalis vein, then blood samples were collected from the carotid artery at selected time points after injection (minimum five time points per compound). Immediately after blood collection, the mice were euthanized by decapitation. The collected blood samples were centrifuged at 10,000 g for 15 min at 21° C. and the brains were isolated. The brain and the serum of each mouse were then analysed using a validated bio-analytical, ultrahigh-performance liquid chromatography tandem mass spectrometry method. Modelling of the data was performed according to the linear Gjedde-Patlak equation, giving the influx rate constant Kin (unidirectional clearance) of AH-D peptide. The molar concentration in the brain was also calculated by converting the mass of peptide per mass of brain tissue into the mass of peptide per volume of brain tissue by assuming the brain density to be 1.04 g ml^−1. […]

[3] = tested on: DENV-4; assay: Plaque reduction neutralization assay, DENV-4; type: cell-based, Dengue virus serotype 4; settings: Vero cells; virus pre-incubated with peptide 1 h at 37° C.; read-out: DENV-4 PRNT50
Method: (§1) Vero cells were seeded at 1×10^5 cells per well and incubated overnight. Twofold serial dilutions of peptide were incubated with 200-300 p.f.u. of virus for 1 h at 37° C. Cells were infected with the virus-peptide mixture for 1 h at 37° C. The inoculum was removed and 0.8% (wt/vol) methylcellulose in medium supplemented with 1% FBS was added. After 3-5 days incubation, plates were fixed and analysed for plaques by immunostaining (DENV). For immunostaining, the cells were fixed, followed by incubation with 4G2, a mouse anti-DENV E protein monoclonal antibody (1:2,000 dilution), for 16-20 h. After addition of a secondary antibody, goat anti-mouse IgG (H+L)-HRP conjugate (1:2,000 dilution), the TrueBlue peroxidase substrate (KPL) was added and the optical density was measured at a wavelength of 450 nm. For crystal violet staining, cells were fixed with fixing solution (5% glutaric dialdehyde in Dulbecco's PBS) followed by staining with 0.1% crystal violet in fixing solution. The IC50 value was calculated by comparing the relative number of plaques in peptide-treated samples to virus-only samples using a four-parameter logistic curve fit.

[4] = tested on: DENV-3; assay: Plaque reduction neutralization assay, DENV-3; type: cell-based, Dengue virus serotype 3; settings: Vero cells; virus pre-incubated with peptide 1 h at 37° C.; read-out: DENV-3 PRNT50
Method: as §1

[5] = tested on: DENV-2; assay: Plaque reduction neutralization assay, DENV-2; type: cell-based, Dengue virus serotype 2; settings: Vero cells; virus pre-incubated with peptide 1 h at 37° C.; read-out: DENV-2 PRNT50
Method: as §1

[6] = tested on: DENV-1; assay: Plaque reduction neutralization assay, DENV-1; type: cell-based, Dengue virus serotype 1; settings: Vero cells; virus pre-incubated with peptide 1 h at 37° C.; read-out: DENV-1 PRNT50
Method: as §1

[7] = Time-lapse fluorescence microscopy imaging of peptide-induced vesicle rupture; settings: small and large tethered vesicles
Method: Highly parallel measurements of peptide-induced liposome rupture were conducted by time-lapsed epifluorescence microscopy imaging. An Eclipse Ti-E inverted microscope (Nikon) with a high-pressure mercury lamp, a CFI Plan Apochromat TIRF×60 oil-immersion objective (NA 1.49; Nikon) and an Andor iXon3 897 EMCCD camera (Andor Technology), was utilized for measurements. The samples were illuminated with a mercury lamp (Intenslight C-HGFIE) using a TRITC filter set. Briefly, glass coverslips were assembled into a microfluidic flow cell, and coated with a thin layer of PLL-g-PEG(-biotin), followed by tethering of 0.025 μg ml^−1 liposomes via biotin-neutravidin coupling. Peptide was then added at a volumetric rate of 100 μl min^−1, and micrographs were recorded every 5-30 s depending on the particular experiment. The initial time was defined by when the peptide solution entered the channel inlet. Data processing and analysis were conducted using ImageJ (National Institutes of Health) and Python(x,y) software packages. The diameter of individual liposomes was estimated based on fluorescence intensity values. […]
Using time-lapse fluorescence microscopy imaging, we further investigated the interactions of different versions of Peptides 2 and 4 with tethered vesicles at the single-vesicle level and saw different degrees of vesicle rupture in terms of total extent and speed (FIG. 14).

CC[C@@H](C)[C@@H](NC(=O)[C@@H](Cc1c[nH]c2ccccc12)NC(=O)[C@@H](CC(=O)O)NC(=O)[C@@H](Cc1c[nH]c2ccccc12)NC(=O)[C@H](NC(=O)[C@@H](CC(=O)O)NC(=O)[C@@H](CCCNC(=N)N)NC(=O)[C@@H](CC(C)C)NC(=O)[C@@H](Cc1c[nH]c2ccccc12)NC(=O)[C@@H](CO)NC(=O)CNC(=O)[C@H](N)CO)C(C)C)C(=O)N[C@H](CS)C(=O)N[C@@H](C(=O)N[C@@H](C(=O)N[C@H](CC(C)C)C(=O)N[C@@H](C(=O)N[C@H](CC(=O)O)C(=O)N[C@H](Cc1ccccc1)C(=O)N[C@H](CCCCN)C(=O)N[C@@H](C(=O)N[C@H](Cc1c[nH]c2ccccc12)C(=O)N[C@H](CC(C)C)C(=O)N[C@H](CCC(N)=O)C(=O)N[C@H](CO)C(=O)N[C@H](CCCCN)C(=O)N[C@H](CC(C)C)C(=O)O)[C@H](C)O)[C@H](C)O)C(C)C)[C@H](C)O [AH-D peptide]
Bioavailability [1]: high bioavailability | Circulation half-time ([1]; 25 mg kg−1 i.v.): relatively long circulation half-time | Blood brain barrier (BBB) crossing [2]: able to cross the blood brain barrier | Blood brain barrier (BBB) crossing ([2]; listed as D-amino acid version of peptide 2): BBB-crossing activity to achieve therapeutic concentrations in the brain

SGSWLRDIWDWICEVLSDFKTWLKAKL [Peptide O1O]
pIC50 [3]: 6.54 | pIC50 [4]: 6.76 | pIC50 [5]: 6.62 | pIC50 [6]: 6.88

SGSWLRDIWEWVCSILTDFKNWLSAKL [Peptide N4N]
pIC50 [3]: 6.01 | pIC50 [4]: 5.41 | pIC50 [5]: 5.87 | pIC50 [6]: 6.55

SGSWLRDIWEWVCSILTDFKNWLSAKL [Peptide N4O]
pIC50 [3]: 6.48 | pIC50 [4]: 5.55 | pIC50 [5]: 6.25 | pIC50 [6]: 6.56

SGSWLRDIWEWVCSILTDFKNWLSAKL [Peptide O4O]
pIC50 [3]: 5.81 | pIC50 [4]: 5.66 | pIC50 [5]: 5.92 | pIC50 [6]: 6.44

SGSWLRDVWDWICTVLTDFKTWLQSKL [Peptide N2N]
pIC50 [3]: 6.77 | pIC50 [4]: 6.36 | pIC50 [5]: 6.54 | Dependence of vesicle rupture on vesicle size (membrane-curvature sensing), single-vesicle analysis [7]: have membrane-curvature sensing mechanisms | pIC50 [6]: 6.94

SGSWLRDVWDWICTVLTDFKTWLQSKL [Peptide N2O]
pIC50 [3]: 6.57 | pIC50 [4]: 6.18 | pIC50 [5]: 6.42 | Dependence of vesicle rupture on vesicle size (membrane-curvature sensing), single-vesicle analysis [7]: ruptured vesicles independently of vesicle size | pIC50 [6]: 6.84

SGSWLRDVWDWVCTILTDFKNWLTSKL [Peptide N3N]
pIC50 [3]: 6.86 | pIC50 [4]: 6.03 | pIC50 [5]: 6.41 | pIC50 [6]: 6.92

SGSWLRDVWDWVCTILTDFKNWLTSKL [Peptide N3O]
pIC50 [3]: 6.54 | pIC50 [4]: 5.99 | pIC50 [5]: 6.51 | pIC50 [6]: 6.74

SGSWLRDVWDWVCTILTDFKNWLTSKL [Peptide O3O]
pIC50 [3]: 6.57 | pIC50 [4]: 6.62 | pIC50 [5]: 6.53 | pIC50 [6]: 6.83
